Measurements from US9138433B2, “Indole alkaloid compounds as melanogenesis promoters and uses thereof” (NEW YORK UNIVERSITY, priority 2010, dated 2015).

Columns and labels:
melan-a cells = experiment: Melanin assay in cultured murine melanocytes (melan-a); type: cell-based; conditions: melanin content, 72 hours incubation
Method: The Spectrum Collection library consisting of 2000 drug compounds or natural products was screened to identify novel pigmentation inhibitors or stimulators in cultured murine melanocytes (melan-a). Compounds were dissolved in dimethylsulfoxide (DMSO) to a final concentration of 10 mM. Screening was performed with cultured melanocytes in 24-well plates followed by melanin assay (see below). A minimum change of 50% in melanin formation was established as significant for a pigmentation inhibitor or stimulator. DMSO was used as a negative control and the widely used depigmenting agent, hydroquinone, was used as a positive control on every plate. Primary screening was performed at a final concentration of 1 μM and potential candidates from the primary screening were reconfirmed in duplicate at final concentrations of 1 and 5 μM.
Melan-a cells were plated at 5×10^4 cells per well in 1 ml of culture media in 24-well plates the day before adding the library compounds. All compounds were added at the indicated final concentrations. Cells were harvested after 72 hours of incubation, and melanin assay was performed.
For further test and mechanism of action studies, the compounds were purchased from either Sigma or MicroSource. These compounds were dissolved in dimethylsulfoxide (DMSO) to a final concentration of 10 mM, and were tested for their effect on melanin synthesis at the indicated final concentrations.
For the primary and secondary screening, cells were harvested and dissolved in 200 μl of 2N NaOH in 20% DMSO at 70° C. A 180-μl aliquot of the resulting solution was measured for absorbance at 490 nm.
Cells are harvested in extraction buffer (1% Triton X-100, 50 mM Tris, 2 mM EDTA, 150 mM NaCl, pH 7.5) containing a complete protease inhibitor cocktail (Roche). The lysates were centrifuged at 14,000 rpm for 10 minutes at 4° C. BCA protein assay kit (Pierce) was used to measure the protein concentrations of the supernatants, and bovine serum albumin was used as a standard. The remaining pellets were incubated with 100 μl ethanol-ether (1:1) for 10 minutes at room temperature. After removing the ethanol-ether, the pellets were dissolved in 200 μl of 2N NaOH in 20% DMSO at 70° C. A 180-μl aliquot of the resulting solution was measured for absorbance at 490 nm. The melanin contents were normalized to the total amount of protein.

[1] = test system: Asian skin equivalent (MEL-A); experiment: MelanoDerm pigmentation assay, Asian skin equivalent (MEL-A); type: cell-based, human
Method: MelanoDerm™, made by MatTek Corp., is a viable reconstituted three-dimensional human skin equivalent containing normal melanocytes and keratinocytes that are derived from African-American (MEL-B), Asian (MEL-A) or Caucasian (MEL-C) donors. Both MEL-A and MEL-B tissues were used in the current study, and they were maintained in the NMM-113 medium as recommended by the manufacturer.
Pubescine (from Sigma) was dissolved in 30% ethanol: 70% propylene glycol to a final concentration of 1.0 mM (equal to 356.6 μg/ml), and this was maintained constant and used on all samples tested. A 25 μl of its aliquot was applied topically to the MelanoDerm™ tissue (MEL-B) on Days 0, 1, 3, 6, 8 and 10. The MelanoDerm™ tissues were fed every other day with 5 ml fresh NMM-113. Prior to each application, the tissues were washed with 1 ml PBS to remove any residual test compound. Tissues were fixed on Days 10 and 13 for microscopic analysis and histological evaluation. In addition, duplicate tissues were frozen on Days 10 and 13 for the melanin assay.
Similar experiments were performed on Asian skin equivalent (MEL-A) except: the treatments were applied on Days 0, 1, 3, 6, 8, 10 and 13. Tissues were taken out on Days 13 and 16 for the various assays. […]
Procedure 1: the effects of pubescine on melanin synthesis in MEL-A or B were evaluated by light microscopy (views from the top surface of the tissue). […]

[2] = test system: Tyr gene family proteins and gp100 in melan-a cells; experiment: Cellular levels of Tyr gene family proteins and gp100 in melan-a cells (immunoblot); type: cell-based, murine; conditions: various concentrations, 72 hrs, FIG. 3
Method: Melan-a cells were incubated with various concentrations of pubescine for 72 hrs. Cell lysates were prepared and separated by 7.5% sodium dodecyl sulfate-polyacrylamide gel and transferred to Immobilon-P membranes. Tyrosinase gene family proteins were detected with antibodies against each protein. The results are set forth in the gel of FIG. 3.

[3] = test system: Tyr, Tryp-1 or Lamp-1 in melan-a cells; experiment: Sub-cellular localization of Tyr, Tyrp-1, Lamp-1 in melan-a cells (immunofluorescence); type: cell-based, murine; conditions: 10 μM, 72 hrs at 37° C., FIGS. 4A and 4B
Method: Cells were cultured on cover slips, incubated with or without 10 μM pubescine for 72 hrs at 37° C. The cells were fixed with −20° C. methanol for 5 min and stained by immunofluorescence with antibodies for Tyr, Tyrp-1 and/or Lamp-1. The slides were analyzed with a confocal microscope (LSM 510, Zeiss).

In the case of `COC(=O)[C@H]1[C@H]2C[C@H]3c4[nH]c5ccccc5c4CCN3C[C@@H]2CC[C@@H]1O` [ID 1, Corynanthine], the % after treatment @ 1 μM (melan-a cells) is reported as 111% and the % after treatment @ 5 μM (melan-a cells) is reported as 211%.

Molecule `CC[C@H]1[C@@H]2C[C@H]3[C@@H]4N(C)c5ccccc5[C@]45C[C@@H]([C@H]2[C@H]5O)N3[C@@H]1O` [ID 2, Ajmaline, reference compound] has a % after treatment @ 1 μM (melan-a cells) of 117% and a % after treatment @ 5 μM (melan-a cells) of 206%.

For `COC(=O)C1=CO[C@@H](C)[C@H]2CN3CCc4c([nH]c5ccccc45)[C@@H]3C[C@H]12` [ID 3, Ajmalicine, reference compound], the % after treatment @ 1 μM (melan-a cells) was 106% and the % after treatment @ 5 μM (melan-a cells) was 133%.

`COC(=O)[C@H]1[C@H]2C[C@@H]3c4[nH]c5cc(OC)ccc5c4CCN3C[C@H]2C[C@@H](OC(=O)c2cc(OC)c(OC)c(OC)c2)[C@@H]1OC` [ID 4, Reserpine, reference compound] gave a % after treatment @ 1 μM (melan-a cells) of 117% and a % after treatment @ 5 μM (melan-a cells) of 133%.

With `COc1ccc2c3c([nH]c2c1)[C@@H]1C[C@H]2[C@@H](C[C@@H](O)[C@H](OC)[C@H]2C(=O)O)CN1CC3` [ID 5, Reserpic Acid] the % after treatment @ 1 μM (melan-a cells) was 111% and the % after treatment @ 5 μM (melan-a cells) was 217%.

`COC(=O)C1=CO[C@@H](C)[C@H]2CN3CCc4c([nH]c5cc(OC)ccc45)[C@@H]3C[C@H]12` [ID 6, Pubescine] was tested, and the % after treatment @ 1 μM (melan-a cells) was 172%, the % after treatment @ 5 μM (melan-a cells) was 267% and the “Fontana-Masson staining, melanin content” value ([1]; Asian skin equivalent (MEL-A), FIG. 6) was “increase in the melanin content”. For the same molecule, the “Melanin content increase of Asian skin equivalent (MEL-A)” value ([1]; pubescine 1.0 mM topical, 25 μl, FIG. 7) was about 40%, the “Cellular levels of tyrosinase family proteins and gp100” value [2] was “increases cellular levels of tyrosinase family proteins and gp100 in a dose-dependent manner” and the “Sub-cellular localization of Tyr, Tryp-1 or Lamp-1” value [3] was “does not alter the sub-cellular localization”.
